Assay results reported in US6545131B1, “Tissue specific prodrug” (priority 1997, dated 2003).
Where two headings read alike, the source gives them in different places.

What was measured:
[1] = biological target: T1, endoplasmic reticulum Ca2+-ATPase (SERCA), SR vesicles from rabbit skeletal muscle (Oryctolagus cuniculus, UniProt P04191); assay: SERCA inhibition: 45Ca2+ uptake to sarcoplasmic reticulum vesicles; type: biochemical
T1 construct: sarcoplasmic reticulum (SR) vesicles prepared from rabbit skeletal muscle; from tissue; host or cells: rabbit skeletal muscle sarcoplasmic reticulum vesicles
T1 sequence (P04191 1-994 isoform P04191-2): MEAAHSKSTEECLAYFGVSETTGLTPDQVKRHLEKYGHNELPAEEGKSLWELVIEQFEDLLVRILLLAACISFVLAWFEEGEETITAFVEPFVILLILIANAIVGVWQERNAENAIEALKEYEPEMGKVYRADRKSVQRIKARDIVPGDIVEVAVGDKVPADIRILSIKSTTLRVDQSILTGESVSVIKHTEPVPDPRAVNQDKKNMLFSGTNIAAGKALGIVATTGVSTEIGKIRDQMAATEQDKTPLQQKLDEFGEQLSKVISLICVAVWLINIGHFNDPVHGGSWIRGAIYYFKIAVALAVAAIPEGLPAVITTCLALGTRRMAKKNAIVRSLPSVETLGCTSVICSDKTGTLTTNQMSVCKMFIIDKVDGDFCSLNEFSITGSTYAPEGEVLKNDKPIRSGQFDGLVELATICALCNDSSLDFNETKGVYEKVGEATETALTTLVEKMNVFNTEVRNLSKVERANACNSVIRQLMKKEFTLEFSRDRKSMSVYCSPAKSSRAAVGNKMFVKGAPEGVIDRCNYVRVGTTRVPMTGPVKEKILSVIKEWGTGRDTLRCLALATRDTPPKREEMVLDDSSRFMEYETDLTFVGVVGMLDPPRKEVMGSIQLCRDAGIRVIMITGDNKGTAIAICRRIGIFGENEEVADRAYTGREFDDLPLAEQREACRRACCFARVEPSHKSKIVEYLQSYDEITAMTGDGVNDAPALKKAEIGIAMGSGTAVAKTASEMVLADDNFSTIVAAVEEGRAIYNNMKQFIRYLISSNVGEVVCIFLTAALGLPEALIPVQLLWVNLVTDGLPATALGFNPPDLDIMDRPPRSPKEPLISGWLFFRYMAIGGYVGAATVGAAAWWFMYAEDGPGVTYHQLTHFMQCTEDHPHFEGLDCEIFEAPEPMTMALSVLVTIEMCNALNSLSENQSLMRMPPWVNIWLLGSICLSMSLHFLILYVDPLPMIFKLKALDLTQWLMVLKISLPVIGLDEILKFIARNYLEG
Method: The primary amine-containing thapsigargin analogs of the invention have endoplasmic reticulum Ca^2+-ATPase inhibitory activity. This activity is measured as the concentration of analog needed to inhibit 50% of this ATPase (IC50). The IC50 of the analogs of the invention is desirably at most 500 nM, preferably at most 200 nM, and more preferably at most 50 nM of analog.
The inhibitory potency of thapsigargin and its analogs was determined as the concentration required to produce 50% inhibition (i.e. IC50) of ^45Ca^2+ uptake to sarcoplasmic reticulum (SR) vesicles prepared from rabbit skeletal muscle by the method of De Meis and Hasselbach (J. Biol. Chem., 246: 4759-4763, 1971). The ^45Ca^2+ uptake assay was as described previously (Christensen, et al., FEBS, 335: 345-348, 1993), with the following modifications: 5 μg/ml of SR protein was incubated at 25EC and free Ca^2+ adjusted to 100 nM using 4 min. uptake time. Under these conditions, Ca^2+ could proceed linearly with time for at least 8 minutes. Measurements of Ca^2+ within TSU cells was determined as described previously (Lin et al., The Prostate, 33:201-207, 1997).
(§1) The IC50 results are mean (n=3)±standard error. The LC50 results are mean (n=5)±standard error. The entry “ND” stands for “not determined”. Clonogenic survival not determined above 10 μM for dBTG. Analogs with −boc have a t-butoxycarbonyl (boc) protected amino group.

[2] = Clonogenic survival of TSU-Pr1 cells after 72 hours exposure to TG analogs; type: cell-based, human; settings: human; TSU-Pr1, 72 hours exposure; mean (n=5) ± standard error; read-out: LC50 (concentration needed to kill 50% of clonogenic cells)
Method: The primary amine-containing thapsigargin analogs of the invention have non-specific toxicity toward cells. This toxicity is measured as the concentration of analog needed to kill 50% of clonogenic cells (LC50). The LC50 of the analogs of the invention is desirably at most 20 μM, preferably at most 5 μM, and more preferably at most 500 nM of analog.
Percentage clonogenic survival of TSU-Pr1 (2×10^5 cells) following 72 hours of exposure to varying concentrations of TG analogs was performed as described in Martikainen et al. Cancer Res., 51, 4693-4700 (1991).
as §1
The androgen responsive PSA-producing LNCaP and androgen independent PSA non-producing TSU-Pr1 are human prostate cancer lines were obtained from ATCC (Rockville, Md.) and maintained by serial passage in RPMI 1640 media containing 10% fetal calf serum with 100 units/ml penicillin G, and 100 units/ml streptomycin sulfate (antibiotics from M.A. Bioproducts, Walkerville, Md.) as standard media in 5% CO2/95% air at 37° C. The origins and characteristics of the LNCaP and TSU-Pr1 cell lines are described in Horoszewicz, et al., Cancer Res., 43:1809-1818, (1980)and Iizumi, et al., J. Urol, 137: 1304-1306, (1987).

[3] = mean (n=3) ± standard error, 5 μg/ml SR protein, free Ca2+ 100 nM, 4 min uptake, read-out: IC50 (50% inhibition of 45Ca2+ uptake to SR vesicles)

C/C=C(/C)C(=O)O[C@H]1C(C)=C2[C@H]([C@@H]1OC(=O)CCCCCCC)[C@@](C)(OC(C)=O)C[C@H](OC(=O)c1ccc(N)cc1)[C@@]1(O)[C@H]2OC(=O)[C@@]1(C)O [ABT, 8-O-(4-aminobenzoyl)-8-O-debutanoylthapsigargin]
IC50 [1, 3]: 18.4 ± 0.3 nM | CC50 [2]: 4000 ± 300 nM

C/C=C(/C)C(=O)O[C@H]1C(C)=C2[C@H]([C@@H]1OC(=O)CCCCCCC)[C@@](C)(OC(C)=O)C[C@H](OC(=O)CCCc1ccc(N)cc1)[C@@]1(O)[C@H]2OC(=O)[C@@]1(C)O [ABuT, 8-O-(4-[4-aminophenyl]butanoyl)-8-O-debutanoylthapsigargin]
IC50 [1, 3]: 18.4 ± 1.4 nM | CC50 [2]: 225 ± 20 nM

C/C=C(/C)C(=O)O[C@H]1C(C)=C2[C@H]([C@@H]1OC(=O)CCCCCCC)[C@@](C)(OC(C)=O)C[C@H](OC(=O)CCCc1ccc(NC(=O)OC(C)(C)C)cc1)[C@@]1(O)[C@H]2OC(=O)[C@@]1(C)O [ABuT-boc, 8-O-(4-[4-t-butoxycarbonylaminophenyl]butanoyl)-8-O-debutanoylthapsigargin]
IC50 [1]: 14.4 ± 0.8 nM

C/C=C(/C)C(=O)O[C@H]1C(C)=C2[C@H]([C@@H]1OC(=O)CCCCCCC)[C@@](C)(OC(C)=O)C[C@H](OC(=O)/C=C/c1ccc(NC(=O)OC(C)(C)C)cc1)[C@@]1(O)[C@H]2OC(=O)[C@@]1(C)O [ACT-boc, 8-O-(4-t-butoxycarbonylaminocinnamoyl)-8-O-debutanoylthapsigargin]
IC50 [1, 3]: 20.3 ± 0.2 nM | CC50 [2]: 1900 ± 100 nM

C/C=C(/C)C(=O)O[C@H]1C(C)=C2[C@H]([C@@H]1OC(=O)CCCCCCC)[C@@](C)(OC(C)=O)C[C@H](OC(=O)CCc1ccc(N)cc1)[C@@]1(O)[C@H]2OC(=O)[C@@]1(C)O [APT, 8-O-(3-[4-aminophenyl]propionyl)-8-O-debutanoylthapsigargin]
IC50 [1, 3]: 16.2 ± 0.9 nM | CC50 [2]: 275 ± 60 nM

C/C=C(/C)C(=O)O[C@H]1C(C)=C2[C@H]([C@@H]1OC(=O)CCCCCCC)[C@@](C)(OC(C)=O)C[C@H](OC(=O)CCc1ccc(NC(=O)OC(C)(C)C)cc1)[C@@]1(O)[C@H]2OC(=O)[C@@]1(C)O [APT-boc, 8-O-(3-[4-t-butoxycarbonylaminophenyl]propionyl)-8-O-debutanoylthapsigargin]
IC50 [1, 3]: 21.2 ± 0.8 nM | CC50 [2]: 870 ± 15 nM

C/C=C(/C)C(=O)O[C@H]1C(C)=C2[C@H]([C@@H]1OC(=O)CCCCCCC)[C@@](C)(OC(C)=O)C[C@H](OC(=O)CCCC(=O)Nc1ccc(C)c(N)c1)[C@@]1(O)[C@H]2OC(=O)[C@@]1(C)O [GDT, 8-O-{4-(N-[3-amino-4-methylphenyl]-carboxamido)butanoyl}-8-O-debutanoylthapsigarg in]
IC50 [1, 3]: 316 ± 23 nM | CC50 [2]: 16600 ± 400 nM

C/C=C(/C)C(=O)O[C@H]1C(C)=C2[C@H]([C@@H]1OC(=O)CCCCCCC)[C@@](C)(OC(C)=O)C[C@H](OC(=O)CCCCCC(=O)Nc1ccc(C)c(N)c1)[C@@]1(O)[C@H]2OC(=O)[C@@]1(C)O [PDT, 8-O-{6-(N-[3-amino-4-methylphenyl]-carboxamido)hexanoyl}-8-O-debutanoylthapsigargin]
IC50 [1, 3]: 17.7 ± 2.4 nM | CC50 [2]: 3100 ± 200 nM

C/C=C(/C)C(=O)O[C@H]1C(C)=C2[C@H]([C@@H]1OC(=O)CCCCCCC)[C@@](C)(OC(C)=O)C[C@H](OC(=O)CCC(=O)Nc1ccc(C)c(N)c1)[C@@]1(O)[C@H]2OC(=O)[C@@]1(C)O [SDT, 8-O-{3-(N-[3-amino-4-methylphenyl]-carboxamido)propanoyl}-8-O-debutanoylthapsigargin]
IC50 [1, 3]: 1280 ± 91 nM | CC50 [2]: > 25000 nM
